Our source for the Ki values is patent US20100113540A1, “Azole and Thiazole Derivatives and Their Use” (ARGENTA DISCOVERY LIMITED, priority 2005, published 2010).

Structures are written as SMILES. Structures can show the parent of a compound that is named as a salt.

The Ki is a dissociation constant, usually derived from enzyme kinetics or from competition with a known ligand.

For this assay, the target named is T1, M3 muscarinic receptor (Homo sapiens, UniProt P20309).
T1 construct: purchased
T1 sequence (P20309 whole entry): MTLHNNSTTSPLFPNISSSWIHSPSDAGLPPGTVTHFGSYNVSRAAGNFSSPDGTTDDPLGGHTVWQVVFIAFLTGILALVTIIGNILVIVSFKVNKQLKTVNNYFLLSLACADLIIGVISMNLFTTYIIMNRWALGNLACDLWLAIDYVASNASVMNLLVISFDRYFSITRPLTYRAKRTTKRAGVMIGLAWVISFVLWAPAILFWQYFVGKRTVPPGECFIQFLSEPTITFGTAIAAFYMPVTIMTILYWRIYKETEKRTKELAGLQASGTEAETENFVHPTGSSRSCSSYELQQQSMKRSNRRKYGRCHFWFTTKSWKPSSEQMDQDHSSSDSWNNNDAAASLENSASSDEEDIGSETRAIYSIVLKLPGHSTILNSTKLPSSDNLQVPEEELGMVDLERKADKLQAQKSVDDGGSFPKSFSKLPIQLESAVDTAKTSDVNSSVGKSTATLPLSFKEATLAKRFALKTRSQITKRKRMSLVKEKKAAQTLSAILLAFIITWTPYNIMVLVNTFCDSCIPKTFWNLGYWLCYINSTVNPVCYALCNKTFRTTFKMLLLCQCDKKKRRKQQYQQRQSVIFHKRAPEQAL
The assay is described as follows: Muscarinic receptor radioligand binding assay ([3H]-NMS), M3. The conditions noted are these: cell membranes expressing human M3 receptor. The method, then:
The inhibitory effects of compounds of the present invention at the M3 muscarinic receptor and (in the case of Example 77) the β2 adrenergic receptor, were determined by the following binding assays:
Radioligand binding studies utilising [^3H]-N-methyl scopolamine ([^3H]-NMS) and commercially available cell membranes expressing the human muscarinic receptors (M2 and M3) were used to assess the affinity of muscarinic antagonists for M2 and M3 receptors. Membranes in TRIS buffer were incubated in 96-well plates with [^3H]-NMS and M3 antagonist at various concentrations for 3 hours. Membranes and bound radioligand were then harvested by filtration and allowed to dry overnight. Scintillation fluid was then added and the bound radioligand counted using a Can berra Packard Topcount scintillation counter
Turning to `C[N+](C)(CC(=O)Nc1ccon1)Cc1cnc([C@](O)(c2ccccc2)C2CCCCC2)o1` [Example 52, [2-((R)-Cyclohexyl-hydroxy-phenyl-methyl)-oxazol-5-ylmethyl]-(isoxazol-3-ylcarbamoylmethyl)-dimethyl-ammonium bromide], the inhibitory constant (Ki) lay within 1 to 10 nM. For the molecule `C[N+](C)(CCc1ccc2c(c1)CCO2)Cc1cnc([C@](O)(c2ccccc2)C2CCCCC2)o1` [Example 34, [2-((R)-Cyclohexyl-hydroxy-phenyl-methyl)-oxazol-5-ylmethyl]-[2-(2,3-dihydro-benzofuraan-5-yl)-ethyl]-dimethyl-ammonium bromide], the Ki was less than 1 nM. For `CNCCCCCCCC[N+](C)(C)Cc1cnc([C@](O)(c2ccccc2)C2CCCCC2)o1` [Example 61, [2-((R)-cyclohexyl-hydroxy-phenyl-methyl)-oxazol-5-ylmethyl]-dimethyl-(8-methylamino-octyl)-ammonium methanesulfonate hydrochloride salt] the value was less than 1 nM; for `CN(C)Cc1cnc([C@@](O)(c2ccccc2)C2CCCCC2)o1` (single isomer, unassigned) [Example 5], more than 10 nM; for `C[N+](C)(CCOCc1ccc(Cl)cc1)Cc1cnc([C@](O)(c2ccccc2)C2CCCCC2)o1` [Example 81, [2-(4-Chloro-benzyloxy)-ethyl]-[2-((R)-cyclohexyl-hydroxy-phenyl-methyl)-oxazol-5-ylmethyl]-dimethyl-ammonium methanesulfonate], less than 1 nM. Molecule `O[C@](c1ccccc1)(c1ncc(C[N+]2(CCCOc3ccccc3)CCCCC2)o1)C1CCCCC1` [Example 38, 1-[2-(Cyclohexyl-hydroxy-phenyl-methyl)-oxazol-5-ylmethyl]-1-(3-phenoxy-propyl)-piperidinium bromide] registered a Ki of 1 to 10 nM.

Turning to `C[N+]1(Cc2cnc(C(O)(c3ccccc3)c3ccccc3)o2)CCC(Oc2ccccc2)CC1` (centres unmarked) [Example 58, 1-[2-(Hydroxy-diphenyl-methyl)-oxazol-5-ylmethyl]-1-methyl-4-phenoxy-piperidinium bromide], the Ki is 1 to 10 nM.

Molecule `COCCCCCCCC[N+](C)(C)Cc1cnc([C@](O)(c2ccccc2)C2CCCCC2)o1` [Example 42, [2-((R)-Cyclohexyl-hydroxy-phenyl-methyl)-oxazol-5-ylmethyl]-(8-methoxy-octyl)-dimethyl-ammonium formate] gave a Ki of 1 to 10 nM. For `C[N+](C)(CCCOc1ccccc1)Cc1cnc([C@](O)(c2ccccc2)C2CCCCC2)o1` [Example 8, [2-((R)-Cyclohexyl-hydroxy-phenyl-methyl)-oxazol-5-ylmethyl]-dimethyl-(3-phenoxy-propyl)-ammonium bromide] the value was less than 1 nM; for `CN(Cc1ccccc1)Cc1cnc([C@](O)(c2ccccc2)C2CCCC2)o1` (single isomer, unassigned) [Example 28, {5-[(Benzyl-methyl-amino)-methyl]-oxazol-2-yl}-cyclopentyl-phenyl-methanol], more than 10 nM. The molecule `C[N+](C)(CCc1ccccc1)Cc1cnc([C@](O)(c2ccccc2)C2CCCCC2)o1` [Example 32, [2-((R)-Cyclohexyl-hydroxy-phenyl-methyl)-oxazol-5-ylmethyl]-dimethyl-phenethyl-ammonium bromide] displayed a Ki of less than 1 nM. For `C[N+](C)(Cc1ccccc1)Cc1cnc([C@@](O)(c2ccccc2)C2CCCC2)o1` (stereo in doubt) [Example 60, Benzyl-[2-(cyclopentyl-hydroxy-phenyl-methyl)-oxazol-5-ylmethyl]-dimethyl-ammonium bromide] the value was more than 10 nM; for `O[C@@](c1ccccc1)(c1ncc(C[N+]2(CCCOc3ccccc3)CCCCC2)o1)C1CCCCC1` [Example 39, 1-[2-(Cyclohexyl-hydroxy-phenyl-methyl)-oxazol-5-ylmethyl]-1-(3-phenoxy-propyl)-piperidinium bromide], more than 10 nM. For `C[N+](C)(CCCOc1ccc(S(N)(=O)=O)cc1)Cc1cnc([C@](O)(c2ccccc2)C2CCCCC2)o1` [Example 54, [2-((R)-Cyclohexyl-hydroxy-phenyl-methyl)-oxazol-5-ylmethyl]-dimethyl-[3-(4-sulfamoyl-phenoxy)-propyl]-ammonium bromide] the value was 1 to 10 nM. Regarding `O[C@@](c1ccccc1)(c1ncc(C[N+]2(CCCOc3ccccc3)CCCC2)o1)C1CCCCC1` [Example 41, 1-[2-(Cyclohexyl-hydroxy-phenyl-methyl)-oxazol-5-ylmethyl]-1-(3-phenoxy-propyl)-pyrrolidinium bromide], the inhibition constant (Ki) was more than 10 nM. Turning to `CN(C)Cc1cnc([C@](O)(c2ccccc2)C2CCCCC2)o1` (single isomer, unassigned) [Example 6], the Ki is less than 1 nM. `C[N+](C)(CCc1ccccc1)Cc1cnc([C@@](O)(c2ccccc2)C2CCCCC2)o1` [Example 31, [2-((S)-Cyclohexyl-hydroxy-phenyl-methyl)-oxazol-5-ylmethyl]-dimethyl-phenethyl-ammonium bromide] returned a Ki of more than 10 nM. `C[N+](C)(CCCOc1ccc(C(N)=O)cc1)Cc1cnc([C@](O)(c2ccccc2)C2CCCCC2)o1` [Example 51, [3-(4-Carbamoyl-phenoxy)-propyl]-[2-((R)-cyclohexyl-hydroxy-phenyl-methyl)-oxazol-5-ylmethyl]-dimethyl-ammonium bromide]: the Ki lay in the range of 1 to 10 nM.

The molecule `C[N+](C)(CCCOCc1ccccc1)Cc1cnc([C@](O)(c2ccccc2)C2CCCCC2)o1` [Example 80, (3-Benzyloxy-propyl)-[2-((R)-cyclohexyl-hydroxy-phenyl-methyl)-oxazol-5-ylmethyl]-dimethyl-ammonium bromide] yielded a Ki of less than 1 nM. For `CN(CCCOc1ccccc1)Cc1cnc(C(O)(c2ccccc2)C2CCCCC2)o1` (centres unmarked) [Example 13, Cyclohexyl-(5-{[methyl-(3-phenoxy-propyl)-amino]-methyl}-oxazol-2-yl)-phenyl-methanol] the value was 1 to 10 nM; for `OC(c1ccccc1)(c1ccccc1)c1ncc(CN2CCC(Oc3ccccc3)CC2)o1` [Example 26, [5-(4-Phenoxy-piperidin-1-ylmethyl)-oxazol-2-yl]-diphenyl-methanol], more than 10 nM; for `CN(C)CCc1cnc(C(O)(c2ccccc2)c2ccccc2)o1` [Example 71, [5-(2-Dimethylamino-ethyl)-oxazol-2-yl]-diphenyl-methanol], 1 to 10 nM. Molecule `C[N+](C)(CCCc1ccccc1)Cc1cnc([C@](O)(c2ccccc2)C2CCCCC2)o1` [Example 48, [2-((R)-cyclohexyl-hydroxy-phenyl-methyl)-oxazol-5-ylmethyl]-dimethyl-(3-phenyl-propyl)-ammonium formate] came in with a Ki of less than 1 nM.

As for `CN(C)Cc1cnc(C(O)(c2ccccc2)c2ccccc2)o1` [Example 1, (5-Dimethylaminomethyl-oxazol-2-yl)-diphenyv-methanol], the Ki lay within 1 to 10 nM. Regarding `C[N+](C)(CCCOc1ccc(Cl)cc1)Cc1cnc([C@](O)(c2ccccc2)C2CCCCC2)o1` [Example 56, [3-(4-Chloro-phenoxy)-propyl]-[2-((R)-cyclohexyl-hydroxy-phenyl-methyl)-oxazol-5-ylmethyl]-dimethyl-ammonium bromide], the Ki was less than 1 nM.

`O[C@](c1ccccc1)(c1ncc(C[N+]2(CCCOc3ccccc3)CCCC2)o1)C1CCCCC1` [Example 40, 1-[2-(Cyclohexyl-hydroxy-phenyl-methyl)-oxazol-5-ylmethyl]-1-(3-phenoxy-propyl)-pyrrolidinium bromide] had a Ki of less than 1 nM.
